Laboratory results from paper PMC7815984 (Biochemical and biophysical research communications, 2020).

Assays:
[1] = test system: rat aortic ring microvessel outgrowth; assay: Rat aortic ring assay of angiogenesis; format: cell-based, Sprague Dawley rats
[2] = test system: Human Umbilical Vein Endothelial Cells (HUVECs); assay: Endothelial cell tube formation assay
[3] = test system: Human Umbilical Vein Endothelial Cells (HUVECs); details: 12.5–100 μM; cited from earlier work
[4] = biological target: TBD (residues 319–425 of human CRBN) (Homo sapiens, UniProt Q96SW2); format: binding; details: competitive MST
Chain of TBD (residues 319–425 of human CRBN) (Q96SW2 319-425): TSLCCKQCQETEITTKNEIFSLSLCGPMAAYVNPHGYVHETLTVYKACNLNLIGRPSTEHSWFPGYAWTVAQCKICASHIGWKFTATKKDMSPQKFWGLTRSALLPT

Structure (SMILES): CO[C@@H]1[C@H](OC(=O)NC(=O)CCl)CC[C@]2(CO2)[C@H]1[C@@]1(C)O[C@@H]1CC=C(C)C [TNP-470]
- suppression of angiogenesis (positive control) ([1]; 50 μM TNP-470, 4 days): 92%

Structure (SMILES): O=C1CCC(N2C(=O)c3ccccc3C2=O)C(=O)N1 (stereo not shown) [Thalidomide, 2-phthalimidinoglutarimide]
- antiangiogenic activity in tube formation (in words) ([2]; 100 μM, HUVECs): did not demonstrate potent antiangiogenic activity
- tube formation, previous results (in words) [3]: failed to significantly block tube formation
- microvessel outgrowth (in words) ([1]; 100 μM, 4 days): not significantly blocked

Structure (SMILES): O=C1c2c(F)c(F)c(F)c(F)c2C(=O)N1c1ccc(F)cc1F [CPS49]
- inhibition of tube formation compared with vehicle control (positive control) ([2]; 30 μM CPS49, HUVECs, 18 hours): 89%

Structure (SMILES): CC(C)N1C(=O)NC(=O)C(C)(NC(=O)c2ccccc2)C1=O (stereo not shown) [Gu3407, N-(1-Isopropyl-5-methyl-2,4,6-trioxo-hexahydropyrimidin-5-yl)benzamide]
- inhibition of tube formation at initial screening dose (in words) ([2]; 10 μM, HUVECs, 18 hours): no inhibition
- inhibition of tube formation over concentration range (in words) ([2]; 10–100 μM, HUVECs): no significant inhibition
- binding to TBD of human CRBN (in words) [4]: did not show any binding

Structure (SMILES): NC(=O)c1nnn(Cc2cc(Cl)c(C(=O)c3ccc(Cl)cc3)c(Cl)c2)c1N [CAI, carboxyamidotriazole]
- suppression of angiogenesis (positive control) ([1]; 30 μM CAI, 4 days): 95%

Structure (SMILES): O=C1CCC(N2C(=O)c3c(F)c(F)c(F)c(F)c3C2=O)C(=O)N1 (stereo not shown) [Gu3041, 2-(2,6-Dioxo-3-piperidyl)-4,5,6,7-tetrafluoro-isoindoline-1,3-dione]
- tube formation over concentration range (in words) ([2]; 0.1–10 μM, HUVECs): reduced tube formation in a concentration-dependent manner
